Test system: yeast genes (level of expressed mRNA)
Assay: DNA chip analysis of expressed mRNA of yeast genes after 2 h culture with a toxic chemical substance
Assay type: cell-based, Saccharomyces cerevisiae S288C
Description: Yeast (Saccharomyces cerevtisiae S288C (α SUC2mal mel gap2 CUP1)) were cultured at 25° C. on YPD medium (yeast extract 1%, polypepton 2%, glucose 2%). One of toxic chemical substances was added to the cell at logarithmic growth phase, and the cell was further cultured for two hours. Cell was cultured without any chemical substance in the same condition, and was used as control. Concentrations of the chemical substances were defined to inhibit the growth of the yeast but not lead to death.
After the completion of cultivation, the culture was centrifuged to collect the cells. To the cells, sodium acetate buffer (50 mM sodium acetate, 10 mM EDTA, 1% SDS) was added, and the mixture was shaken at 65° C. for five minutes, followed by returning to room temperature, and obtaining the supernatant, which procedure was repeated two times. To the supernatant, ½ amount of a solution of phenol/chloroform was added, and the mixture was centrifuged to give a supernatant, which was added with an equal amount of chloroform, and the mixture was centrifuged to give a supernatant. To the supernatant, an equal amount of isopropanol containing 0.3 M sodium acetate was added, and the mixture was allowed to stand at room temperature for 30 minutes, after which the mixture was centrifuged to give a sediment of the whole RNAs. Seventy % ethanol was added to the sediment, and the mixture was again centrifuged to give a sediment, which was then dried and dissolved in water. mRNA was isolated from the whole RNAs as followings. In view of the fact that a poly A chain is attached to the 3′ terminus of mRNA, a polynucleotide having a poly T structure which was immobilized on the surface of latex beads was used to trap the mRNA, and then the mRNA was washed and eluted with spine column (Oligotex-dT30<Super>mRNA Purification Kit, Takara). Reverse transcription of the mRNA was conducted with a reverse transcriptase (Super Script II Reverse Transcriptase; catalogue No. 18064-014, GibcoBRL) using fluorescence-labeled nucleotides to give cDNAs that were introduced with Cy3-dUTP or Cy5-dUTP during the reverse transcription.
The labeled cDNAs were dissolved in TE buffer (10 mM Tris-HCl/1 mM EDTA, pH8.0), and the solution was dropped on the DNA chip containing the whole genes of yeast (DNA Chip Research Inc. Japan) so that the cDNAs were hybridized on the DNA chip at 65° C. for over 12 hours. The fluoresces intensity of the DNA chip was read with a scanner, and the ratio relative to the fluorescence intensity resulting from the absence of chemical substance was estimated as the following, which is shown in Tables 1 to 9: [formula]
In the Tables, “Intensity” indicated in the rightmost column is a value of the level of expressed mRNA of each gene in control cells as divided by the average level of the expressions of the whole genes.

For Oc1cc(Cl)c(Cl)cc1Cl [(6), 2,4,5-trichlorophenol], the “The level of expressed mRNA in the presence of chemical substance/The level of expressed mRNA in the absence of chemical substance” value (yeast gene YAR010C) was 2.3, the “The level of expressed mRNA in the presence of chemical substance/The level of expressed mRNA in the absence of chemical substance” value (yeast gene YBL005W-A) was 1.2 and the “The level of expressed mRNA in the presence of chemical substance/The level of expressed mRNA in the absence of chemical substance” value (yeast gene YBL041W) was 1.7. The “The level of expressed mRNA in the presence of chemical substance/The level of expressed mRNA in the absence of chemical substance” value (yeast gene YBL043W) was 26.9, the “The level of expressed mRNA in the presence of chemical substance/The level of expressed mRNA in the absence of chemical substance” value (yeast gene YBL078C) was 2.4 and the “The level of expressed mRNA in the presence of chemical substance/The level of expressed mRNA in the absence of chemical substance” value (yeast gene YBR214W) was 0.8. The “The level of expressed mRNA in the presence of chemical substance/The level of expressed mRNA in the absence of chemical substance” value (yeast gene YCL020W) was 1.0, the “The level of expressed mRNA in the presence of chemical substance/The level of expressed mRNA in the absence of chemical substance” value (yeast gene YCL027W) was 1.3 and the “The level of expressed mRNA in the presence of chemical substance/The level of expressed mRNA in the absence of chemical substance” value (yeast gene YCR004C) was 1.8. For the same compound, the “The level of expressed mRNA in the presence of chemical substance/The level of expressed mRNA in the absence of chemical substance” value (yeast gene YCR071C) was 2.5, the “The level of expressed mRNA in the presence of chemical substance/The level of expressed mRNA in the absence of chemical substance” value (yeast gene YCR088W) was 2.0 and the “The level of expressed mRNA in the presence of chemical substance/The level of expressed mRNA in the absence of chemical substance” value (yeast gene YDL008W) was 2.7. The “The level of expressed mRNA in the presence of chemical substance/The level of expressed mRNA in the absence of chemical substance” value (yeast gene YDL238C) was 2.1, the “The level of expressed mRNA in the presence of chemical substance/The level of expressed mRNA in the absence of chemical substance” value (yeast gene YDR055W) was 3.9 and the “The level of expressed mRNA in the presence of chemical substance/The level of expressed mRNA in the absence of chemical substance” value (yeast gene YDR084C) was 2.1. For the same compound, the “The level of expressed mRNA in the presence of chemical substance/The level of expressed mRNA in the absence of chemical substance” value (yeast gene YDR085C) was 2.1, the “The level of expressed mRNA in the presence of chemical substance/The level of expressed mRNA in the absence of chemical substance” value (yeast gene YDR104C) was 1.7 and the “The level of expressed mRNA in the presence of chemical substance/The level of expressed mRNA in the absence of chemical substance” value (yeast gene YDR115W) was 2.3. For the same compound, the “The level of expressed mRNA in the presence of chemical substance/The level of expressed mRNA in the absence of chemical substance” value (yeast gene YDR259C) was 0.5, the “The level of expressed mRNA in the presence of chemical substance/The level of expressed mRNA in the absence of chemical substance” value (yeast gene YDR315C) was 9.4 and the “The level of expressed mRNA in the presence of chemical substance/The level of expressed mRNA in the absence of chemical substance” value (yeast gene YDR358W) was 2.5. For the same compound, the “The level of expressed mRNA in the presence of chemical substance/The level of expressed mRNA in the absence of chemical substance” value (yeast gene YDR388W) was 1.0, the “The level of expressed mRNA in the presence of chemical substance/The level of expressed mRNA in the absence of chemical substance” value (yeast gene YDR432W) was 0.6 and the “The level of expressed mRNA in the presence of chemical substance/The level of expressed mRNA in the absence of chemical substance” value (yeast gene YDR481C) was 0.9. The “The level of expressed mRNA in the presence of chemical substance/The level of expressed mRNA in the absence of chemical substance” value (yeast gene YDR510W) was 1.0, the “The level of expressed mRNA in the presence of chemical substance/The level of expressed mRNA in the absence of chemical substance” value (yeast gene YEL042W) was 0.5 and the “The level of expressed mRNA in the presence of chemical substance/The level of expressed mRNA in the absence of chemical substance” value (yeast gene YEL066W) was 2.2. For the same compound, the “The level of expressed mRNA in the presence of chemical substance/The level of expressed mRNA in the absence of chemical substance” value (yeast gene YER039C) was 1.6, the “The level of expressed mRNA in the presence of chemical substance/The level of expressed mRNA in the absence of chemical substance” value (yeast gene YER107C) was 2.5 and the “The level of expressed mRNA in the presence of chemical substance/The level of expressed mRNA in the absence of chemical substance” value (yeast gene YER130C) was 2.7. The “The level of expressed mRNA in the presence of chemical substance/The level of expressed mRNA in the absence of chemical substance” value (yeast gene YFL028C) was 1.7, the “The level of expressed mRNA in the presence of chemical substance/The level of expressed mRNA in the absence of chemical substance” value (yeast gene YFL043C) was 1.8 and the “The level of expressed mRNA in the presence of chemical substance/The level of expressed mRNA in the absence of chemical substance” value (yeast gene YGL158W) was 0.4. The “The level of expressed mRNA in the presence of chemical substance/The level of expressed mRNA in the absence of chemical substance” value (yeast gene YGL229C) was 2.2, the “The level of expressed mRNA in the presence of chemical substance/The level of expressed mRNA in the absence of chemical substance” value (yeast gene YGR136W) was 1.1 and the “The level of expressed mRNA in the presence of chemical substance/The level of expressed mRNA in the absence of chemical substance” value (yeast gene YGR189C) was 0.5. For the same compound, the “The level of expressed mRNA in the presence of chemical substance/The level of expressed mRNA in the absence of chemical substance” value (yeast gene YGR213C) was 4.1, the “The level of expressed mRNA in the presence of chemical substance/The level of expressed mRNA in the absence of chemical substance” value (yeast gene YGR257C) was 2.1 and the “The level of expressed mRNA in the presence of chemical substance/The level of expressed mRNA in the absence of chemical substance” value (yeast gene YHR004C) was 2.0. For the same compound, the “The level of expressed mRNA in the presence of chemical substance/The level of expressed mRNA in the absence of chemical substance” value (yeast gene YHR071W) was 2.0, the “The level of expressed mRNA in the presence of chemical substance/The level of expressed mRNA in the absence of chemical substance” value (yeast gene YHR139C) was 1.9 and the “The level of expressed mRNA in the presence of chemical substance/The level of expressed mRNA in the absence of chemical substance” value (yeast gene YHR142W) was 1.2. The “The level of expressed mRNA in the presence of chemical substance/The level of expressed mRNA in the absence of chemical substance” value (yeast gene YIL123W) was 0.5, the “The level of expressed mRNA in the presence of chemical substance/The level of expressed mRNA in the absence of chemical substance” value (yeast gene YIL140W) was 0.5 and the “The level of expressed mRNA in the presence of chemical substance/The level of expressed mRNA in the absence of chemical substance” value (yeast gene YJL073W) was 2.0. For the same compound, the “The level of expressed mRNA in the presence of chemical substance/The level of expressed mRNA in the absence of chemical substance” value (yeast gene YJL089W) was 1.6, the “The level of expressed mRNA in the presence of chemical substance/The level of expressed mRNA in the absence of chemical substance” value (yeast gene YJL116C) was 3.4 and the “The level of expressed mRNA in the presence of chemical substance/The level of expressed mRNA in the absence of chemical substance” value (yeast gene YJR004C) was 1.2. The “The level of expressed mRNA in the presence of chemical substance/The level of expressed mRNA in the absence of chemical substance” value (yeast gene YJR086W) was 1.9 and the “The level of expressed mRNA in the presence of chemical substance/The level of expressed mRNA in the absence of chemical substance” value (yeast gene YKL008C) was 3.8.

— patent US20050112573A1, “Method of detecting toxic substance” (priority 2001, published 2005)
